Experimental data published in US20240368135A1 (VERTEX PHARMACEUTICALS INCORPORATED, priority 2021, published 2024).
Where two headings read alike, the source gives them in different places.

Target: human NaV 1.8 (Homo sapiens, UniProt Q9Y5Y9)
Experiment: E-VIPR assay detecting and measuring NaV inhibition properties
Assay type: cell-based
Conditions: HEK cells expressing truncated human NaV 1.8
Summary of the method: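 Membrane potential was followed by coumarin/oxonol FRET during electrical field stimulation of matrigel-seeded HEK cells carrying truncated human NaV1.8 plus KIR2.1. Dosing used 11 points, 3-fold steps, top 300 nM final, 0.625% DMSO, with or without 25% human serum.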

[1] = no human serum, read-out: IC50 in the E-VIPR Assay
[2] = in the presence of human serum (compound numbers followed by *), read-out: IC50 in the E-VIPR Assay, performed in the presence of human serum

Chain of human NaV 1.8 (Q9Y5Y9 126-399 limits assumed): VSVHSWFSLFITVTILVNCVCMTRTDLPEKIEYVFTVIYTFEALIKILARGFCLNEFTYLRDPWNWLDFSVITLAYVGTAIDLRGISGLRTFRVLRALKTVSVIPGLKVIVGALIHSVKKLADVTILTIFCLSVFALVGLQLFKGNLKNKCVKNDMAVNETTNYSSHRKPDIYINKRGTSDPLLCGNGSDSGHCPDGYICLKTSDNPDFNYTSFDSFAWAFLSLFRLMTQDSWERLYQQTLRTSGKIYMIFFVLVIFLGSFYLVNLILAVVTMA
Chain of human NaV 1.8 (Q9Y5Y9 660-890 limits assumed): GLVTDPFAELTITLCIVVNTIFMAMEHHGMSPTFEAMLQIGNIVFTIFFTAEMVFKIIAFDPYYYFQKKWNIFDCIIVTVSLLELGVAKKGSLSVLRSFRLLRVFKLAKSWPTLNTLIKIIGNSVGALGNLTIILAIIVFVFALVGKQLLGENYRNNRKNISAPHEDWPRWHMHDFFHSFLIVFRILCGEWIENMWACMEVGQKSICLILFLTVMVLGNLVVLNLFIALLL
Chain of human NaV 1.8 (Q9Y5Y9 1148-1722 limits assumed): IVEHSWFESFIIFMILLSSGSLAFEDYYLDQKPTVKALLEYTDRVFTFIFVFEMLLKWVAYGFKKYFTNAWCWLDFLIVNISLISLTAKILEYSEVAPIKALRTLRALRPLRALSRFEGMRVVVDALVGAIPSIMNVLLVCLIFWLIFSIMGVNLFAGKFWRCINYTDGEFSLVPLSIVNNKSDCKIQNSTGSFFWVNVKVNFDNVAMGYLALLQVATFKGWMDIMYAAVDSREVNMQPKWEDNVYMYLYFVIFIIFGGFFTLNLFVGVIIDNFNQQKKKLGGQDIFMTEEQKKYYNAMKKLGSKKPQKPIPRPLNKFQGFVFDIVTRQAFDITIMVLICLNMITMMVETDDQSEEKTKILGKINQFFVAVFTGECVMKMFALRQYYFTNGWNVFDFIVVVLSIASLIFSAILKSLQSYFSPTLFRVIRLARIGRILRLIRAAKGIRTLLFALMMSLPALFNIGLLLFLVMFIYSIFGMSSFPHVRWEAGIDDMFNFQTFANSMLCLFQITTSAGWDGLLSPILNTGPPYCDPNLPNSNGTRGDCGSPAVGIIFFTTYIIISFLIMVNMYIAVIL

SMILES	IC50 [1] [nM]	IC50 [2] [nM]
C[C@H]1[C@@H](c2ccc(F)c(F)c2OCCO)[C@H](C(=O)Nc2ccnc(C(F)F)c2)O[C@@]1(C)C(F)(F)F [Compound 566, (2R,3S,4S,5R)-3-(3,4-difluoro-2-(2-hydroxyethoxy)phenyl)-N-(2-(difluoromethyl)pyridin-4-yl)-4,5-dimethyl-5-(trifluoromethyl)tetrahydrofuran-2-carboxamide]	< 10	
COc1c([C@H]2[C@H](C(=O)Nc3cc(C(O)CF)ncc3F)O[C@@](C)(C(F)(F)F)[C@H]2C)ccc(F)c1F (single isomer, unassigned) [Compound 24]	< 10	
COCC(C)(C)N(C)Cc1cc(NC(=O)[C@@H]2O[C@@](C)(C(F)(F)F)[C@@H](C)[C@H]2c2ccc(F)c(F)c2OC)ccn1 [Compound 15]	10 to 100	
C[C@H]1[C@@H](c2ccc(F)c(F)c2O[C@H]2C[C@@H](O)C2)[C@H](C(=O)Nc2ccc(C(N)=O)nc2)O[C@@]1(C)C(F)(F)F [Compound 655, 5-((2R,3S,4S,5R)-3-(3,4-difluoro-2-((1S,3R)-3-hydroxycyclobutoxy)phenyl)-4,5-dimethyl-5-(trifluoromethyl)tetrahydrofuran-2-carboxamido)picolinamide]	10 to 100	
COc1c([C@H]2[C@H](C(=O)N[C@H]3C[C@@H]3c3cnn(C)c3)O[C@@](C)(C(F)(F)F)[C@H]2C)ccc(F)c1F (relative stereo) [Compound 267, rel-(2R*,3S*,4S*,5R*)-3-(3,4-difluoro-2-methoxyphenyl)-4,5-dimethyl-N-((1S,2R)-2-(1-methyl-1H-pyrazol-4-yl)cyclopropyl)-5-(trifluoromethyl)tetrahydrofuran-2-carboxamide]	< 10	
COc1c([C@H]2[C@H](C(=O)Nc3ccnc(N4CCCNCC4=O)c3)O[C@@](C)(C(F)(F)F)[C@H]2C)ccc(F)c1F [Compound 481, (2R,3S,4S,5R)-3-(3,4-difluoro-2-methoxyphenyl)-4,5-dimethyl-N-(2-(2-oxo-1,4-diazepan-1-yl)pyridin-4-yl)-5-(trifluoromethyl)tetrahydrofuran-2-carboxamide]	10 to 100	
CCOc1c([C@H]2[C@H](C(=O)Nc3ccnc(S(C)(=N)=O)c3)O[C@@](C)(C(F)(F)F)[C@H]2C)ccc(F)c1C (relative stereo) [Compound 125, rel-(2R,3S,4S,5R)-3-(2-ethoxy-4-fluoro-3-methylphenyl)-4,5-dimethyl-N-(2-(S-methylsulfonimidoyl)pyridin-4-yl)-5-(trifluoromethyl)tetrahydrofuran-2-carboxamide]	< 10	
COc1c([C@H]2[C@H](C(=O)Nc3cc(C(O)CO)ncc3F)O[C@@](C)(C(F)(F)F)[C@H]2C)ccc(F)c1C (single isomer, unassigned) [Compound 140]		10 to 100
COc1c([C@H]2[C@H](C(=O)Nc3ccnc(N4CCCN(C)CC4=O)c3)O[C@@](C)(C(F)(F)F)[C@H]2C)ccc(F)c1F [Compound 467, (2R,3S,4S,5R)-3-(3,4-difluoro-2-methoxyphenyl)-4,5-dimethyl-N-(2-(4-methyl-2-oxo-1,4-diazepan-1-yl)pyridin-4-yl)-5-(trifluoromethyl)tetrahydrofuran-2-carboxamide]	10 to 100	
COc1c([C@H]2[C@H](C(=O)Nc3cnc(C(N)=O)nc3)O[C@@](C)(C(F)(F)F)[C@H]2C)ccc(F)c1C(F)F (stereo in doubt) [Compound 173, rel-5-((2R,3S,4S,5R)-3-(3-(difluoromethyl)-4-fluoro-2-methoxyphenyl)-4,5-dimethyl-5-(trifluoromethyl)tetrahydrofuran-2-carboxamido)pyrimidine-2-carboxamide]	< 10	
COc1c([C@H]2[C@H](C(=O)Nc3ccnc([C@H](O)[C@@H](C)O)c3)O[C@@](C)(C(F)(F)F)[C@H]2C)ccc(F)c1F (single isomer, unassigned) [Compound 203, rel-(2R*,3S*,4S*,5R*)-3-(3,4-difluoro-2-methoxyphenyl)-N-(2-((1S,2R)-1,2-dihydroxypropyl)pyridin-4-yl)-4,5-dimethyl-5-(trifluoromethyl)tetrahydrofuran-2-carboxamide]	< 10	
C[C@H]1[C@@H](c2ccc(F)c(F)c2OCCN2CC3(COC3)C2)[C@H](C(=O)Nc2cccnc2)O[C@@]1(C)C(F)(F)F [Compound 636]	10 to 100	
COc1c([C@H]2[C@H](C(=O)Nc3ccc(-n4ccnc4)nc3)O[C@@](C)(C(F)(F)F)[C@H]2C)ccc(F)c1F [Compound 401, (2R,3S,4S,5R)-N-(6-(1H-imidazol-1-yl)pyridin-3-yl)-3-(3,4-difluoro-2-methoxyphenyl)-4,5-dimethyl-5-(trifluoromethyl)-tetrahydrofuran-2-carboxamide]	10 to 100	
Cc1ncc(NC(=O)[C@@H]2O[C@@](C)(C(F)(F)F)[C@@H](C)[C@H]2c2ccc(F)c(F)c2OCCO)c(C)n1 [Compound 543, (2R,3S,4S,5R)-3-(3,4-difluoro-2-(2-hydroxyethoxy)phenyl)-N-(2,4-dimethylpyrimidin-5-yl)-4,5-dimethyl-5-(trifluoromethyl)tetrahydrofuran-2-carboxamide]	≥ 1000	
COc1c([C@H]2[C@H](C(=O)Nc3csnc3C)O[C@@](C)(C(F)(F)F)[C@H]2C)ccc(F)c1F [Compound 327, (2R,3S,4S,5R)-3-(3,4-difluoro-2-methoxyphenyl)-4,5-dimethyl-N-(3-methylisothiazol-4-yl)-5-(trifluoromethyl)-tetrahydrofuran-2-carboxamide]	< 10	
COc1c([C@H]2[C@H](C(=O)Nc3cc(N4C(=O)CN(C)C[C@H]4C)ncn3)O[C@@](C)(C(F)(F)F)[C@H]2C)ccc(F)c1F [Compound 513]	10 to 100	
CNCC(=O)N(C)c1cc(NC(=O)[C@@H]2O[C@@](C)(C(F)(F)F)[C@@H](C)[C@H]2c2ccc(F)c(F)c2OC)ccn1 [Compound 486, (2R,3S,4S,5R)-3-(3,4-difluoro-2-methoxyphenyl)-4,5-dimethyl-N-(2-(N-methyl-2-(methylamino)acetamido)pyridin-4-yl)-5-(trifluoromethyl)tetrahydrofuran-2-carboxamide]	< 10	
Cc1oncc1NC(=O)[C@@H]1O[C@@](C)(C(F)(F)F)[C@@H](C)[C@H]1c1ccc(F)c(F)c1OCCO [Compound 559, (2R,3S,4S,5R)-3-(3,4-difluoro-2-(2-hydroxyethoxy)phenyl)-4,5-dimethyl-N-(5-methylisoxazol-4-yl)-5-(trifluoromethyl)tetrahydrofuran-2-carboxamide]	10 to 100	
Cc1nn(C(F)F)cc1NC(=O)[C@@H]1O[C@@](C)(C(F)(F)F)[C@@H](C)[C@H]1c1ccc(F)c(F)c1CCN1CC2(COC2)C1 [Compound 679, (2R,3S,4S,5R)-N-[1-(difluoromethyl)-3-methyl-pyrazol-4-yl]-3-[3,4-difluoro-2-[2-(2-oxa-6-azaspiro[3.3]heptan-6-yl)ethyl]phenyl]-4,5-dimethyl-5-(trifluoromethyl)tetrahydrofuran-2-carboxamide]	≥ 1000	
C[C@@H]1[C@H](c2ccc(F)c(F)c2OC(F)F)[C@@H](C(=O)Nc2ccc(=O)n(C)c2)O[C@]1(C)C(F)(F)F (single isomer, unassigned) [Compound 67]		≥ 1000
C[C@@H]1[C@H](c2ccc(F)c(F)c2OC(F)F)[C@@H](C(=O)Nc2cncc(C#N)c2)O[C@]1(C)C(F)(F)F (single isomer, unassigned) [Compound 69]		≥ 1000
COc1c([C@H]2[C@H](C(=O)Nc3cn(C(F)F)nc3C)O[C@@](C)(C(F)(F)F)[C@H]2C)ccc(F)c1F [Compound 311, (2R,3S,4S,5R)-3-(3,4-difluoro-2-methoxyphenyl)-N-(1-(difluoromethyl)-3-methyl-1H-pyrazol-4-yl)-4,5-dimethyl-5-(trifluoromethyl)tetrahydrofuran-2-carboxamide]	< 10	
COc1c([C@@H]2[C@@H](C(=O)Nc3cc(C(O)CO)ncc3F)O[C@](C)(C(F)(F)F)[C@@H]2C)ccc(F)c1C (single isomer, unassigned) [Compound 139]		≥ 1000
COc1c([C@H]2[C@H](C(=O)Nc3ccc(CCS(C)(=O)=O)nc3)O[C@@](C)(C(F)(F)F)[C@H]2C)ccc(F)c1F [Compound 194, (2R,3S,4S,5R)-3-(3,4-difluoro-2-methoxyphenyl)-4,5-dimethyl-N-(6-(2-(methylsuflonyl)ethyl)pyridin-3-yl)-5-(trifluoromethyl)tetrahydrofuran-2-carboxamide]	10 to 100	
C[C@H]1[C@@H](c2ccc(F)c(F)c2O)[C@H](C(=O)Nc2ccc(C(N)=O)nc2)O[C@@]1(C)C(F)(F)F [Compound 649, 5-[[(2R,3S,4S,5R)-3-(3,4-difluoro-2-hydroxy-phenyl)-4,5-dimethyl-5-(trifluoromethyl)tetrahydrofuran-2-carbonyl]amino]pyridine-2-carboxamide]	100 to 1000	
COc1c([C@H]2[C@H](C(=O)Nc3cnc4c(c3)C(O)CC4)O[C@@](C)(C(F)(F)F)[C@H]2C)ccc(F)c1F (single isomer, unassigned) [Compound 434, rel-(2R*,3S*,4S*,5R*)-3-(3,4-difluoro-2-methoxyphenyl)-N-(5-hydroxy-6,7-dihydro-5H-cyclopenta[b]pyridin-3-yl)-4,5-dimethyl-5-(trifluoromethyl)tetrahydrofuran-2-carboxamide]	100 to 1000	
CCOc1c([C@H]2[C@H](C(=O)Nc3ccn4nnnc4c3)O[C@@](C)(C(F)(F)F)[C@H]2C)ccc(F)c1C (stereo in doubt) [Compound 121, rac-(2R,3S,4S,5R)-3-(2-ethoxy-4-fluoro-3-methylphenyl)-4,5-dimethyl-N-(tetrazolo[1,5-a]pyridin-7-yl)-5-(trifluoromethyl)tetrahydrofuran-2-carboxamide]	< 10	
COc1ncc(NC(=O)[C@@H]2O[C@@](C)(C(F)(F)F)[C@@H](C)[C@H]2c2ccc(F)c(F)c2OC)cc1CO [Compound 247, (2R,3S,4S,5R)-3-(3,4-difluoro-2-methoxyphenyl)-N-(5-(hydroxymethyl)-6-methoxypyridin-3-yl)-4,5-dimethyl-5-(trifluoromethyl)tetrahydrofuran-2-carboxamide]	100 to 1000	
